Holding throughout (experiment): Upstate KinaseProfiler radio-enzymatic filter binding assay
Common to all, as to assay type: biochemical

The target of one assay is T1, TrkB (Homo sapiens, UniProt Q16620).
T1 construct: purchased Upstate
The note with it: at a concentration of 10 μM; read-out: percentage inhibition of TrkB. As to the method: (§1) Compounds of the invention are assessed for their ability to inhibit individual members of a panel of kinases (a partial, non-limiting list of kinases includes: Abl, BMX, BTK, CHK2, c-RAF, CSK, c-SRC, Fes, FGFR3, Flt3, IKKα, IKKβ, JNK2α2, Lck, Met, MKK4, MKK6, MST2, NEK2, p70S6K, PDGFRβ, PKA, PKBα, PKD2, Rsk1, SAPK2α, SAPK2β, SAPK3, SGK, Tie2 and/or TrkB. The compounds are tested in duplicates at a final concentration of 10 μM following this generic protocol. Note that the kinase buffer composition and the substrates vary for the different kinases included in the “Upstate KinaseProfiler™” panel. Kinase buffer (2.5 μL, 10×—containing MnCl2 when required), active kinase (0.001-0.01 Units; 2.5 μL), specific or Poly(Glu4-Tyr) peptide (5-500 μM or 0.01 mg/ml) in kinase buffer and kinase buffer (50 μM; 5 μL) are mixed in an eppendorf on ice. A Mg/ATP mix (10 μL; 67.5 (or 33.75) mM MgCl2, 450 (or 225) μM ATP and 1 μCi/μl [γ-^32P]-ATP (3000 Ci/mmol)) is added and the reaction is incubated at about 30° C. for about 10 minutes. The reaction mixture is spotted (20 μL) onto a 2 cm×2 cm P81 (phosphocellulose, for positively charged peptide substrates) or Whatman No. 1 (for Poly (Glu4-Tyr) peptide substrate) paper square. The assay squares are washed 4 times, for 5 minutes each, with 0.75% phosphoric acid and washed once with acetone for 5 minutes. The assay squares are transferred to a scintillation vial, 5 ml scintillation cocktail are added and ^32P incorporation (cpm) to the peptide substrate is quantified with a Beckman scintillation counter. Percentage inhibition is calculated for each reaction.

The target of another assay is T2, PDGFRβ (Homo sapiens, UniProt P09619).
T2 construct: purchased Upstate
The note with it: at a concentration of 10 μM; read-out: percentage inhibition of PDGFRβ. The method, then: as §1

Another assay deals with T3, FGFR3 (Homo sapiens, UniProt P22607).
T3 construct: purchased Upstate
The note with it: at a concentration of 10 μM; read-out: percentage inhibition of FGFR3. The method, then:
as §1

Another assay has as its target T4, BTK (Homo sapiens, UniProt Q06187).
T4 construct: purchased Upstate
The note with it: at a concentration of 10 μM; read-out: percentage inhibition of BTK. As to the method:
as §1

Another assay deals with T5, CSK (Homo sapiens, UniProt P41240).
T5 construct: purchased Upstate
The note with it: at a concentration of 10 μM; read-out: percentage inhibition of CSK. As to the method: as §1

For a further assay, the target named is T6, BMX (Homo sapiens, UniProt P51813).
T6 construct: purchased Upstate
The following applies: at a concentration of 10 μM; read-out: percentage inhibition of BMX. As to the method: as §1

In another assay the target is T7, Lck (Homo sapiens, UniProt P06239).
T7 construct: purchased Upstate
The following applies: at a concentration of 10 μM; read-out: percentage inhibition of Lck. The method, then:
as §1

Another assay deals with T8, p70S6K (Homo sapiens, UniProt P23443).
T8 construct: purchased Upstate
The note with it: at a concentration of 10 μM; read-out: percentage inhibition of p70S6K. The method, then:
as §1

The target in a further assay is T9, c-RAF (Homo sapiens, UniProt P04049).
T9 construct: purchased Upstate
The following applies: at a concentration of 10 μM; read-out: percentage inhibition of c-RAF. The method, then: as §1

For the next assay, the target named is T10, Fes (Homo sapiens, UniProt P07332).
T10 construct: purchased Upstate
The note with it: at a concentration of 10 μM; read-out: percentage inhibition of Fes. The method, then: as §1

The next assay deals with T11, MKK6 (Homo sapiens, UniProt P52564).
T11 construct: purchased Upstate
The note with it: at a concentration of 10 μM; read-out: percentage inhibition of MKK6. As to the method:
as §1

For a further assay, the target named is T12, Tie2 (Homo sapiens, UniProt Q02763).
T12 construct: purchased Upstate
The note with it: at a concentration of 10 μM; read-out: percentage inhibition of Tie2. As to the method: as §1

The next assay addresses T13, Rsk1 (Homo sapiens, UniProt Q15418).
T13 construct: purchased Upstate
The following applies: at a concentration of 10 μM; read-out: percentage inhibition of Rsk1. The method, then:
as §1

For a further assay, the target named is T14, SAPK2α (Homo sapiens, UniProt Q16539).
T14 construct: purchased Upstate
The following applies: at a concentration of 10 μM; read-out: percentage inhibition of SAPK2α. The method, then: as §1

The next assay has as its target T15, Abl (Homo sapiens, UniProt P00519).
T15 construct: purchased Upstate
The following applies: at a concentration of 10 μM; read-out: percentage inhibition of Abl. As to the method: as §1

Another assay concerns the target T16, c-SRC (Homo sapiens, UniProt P12931).
T16 construct: purchased Upstate
The note with it: at a concentration of 10 μM; read-out: percentage inhibition of c-SRC. As to the method:
as §1

For a further assay, the system named is Bcr-Abl. The following applies: at a concentration of 10 μM. The method, then:
as §1

T13 sequence (Q15418 whole entry): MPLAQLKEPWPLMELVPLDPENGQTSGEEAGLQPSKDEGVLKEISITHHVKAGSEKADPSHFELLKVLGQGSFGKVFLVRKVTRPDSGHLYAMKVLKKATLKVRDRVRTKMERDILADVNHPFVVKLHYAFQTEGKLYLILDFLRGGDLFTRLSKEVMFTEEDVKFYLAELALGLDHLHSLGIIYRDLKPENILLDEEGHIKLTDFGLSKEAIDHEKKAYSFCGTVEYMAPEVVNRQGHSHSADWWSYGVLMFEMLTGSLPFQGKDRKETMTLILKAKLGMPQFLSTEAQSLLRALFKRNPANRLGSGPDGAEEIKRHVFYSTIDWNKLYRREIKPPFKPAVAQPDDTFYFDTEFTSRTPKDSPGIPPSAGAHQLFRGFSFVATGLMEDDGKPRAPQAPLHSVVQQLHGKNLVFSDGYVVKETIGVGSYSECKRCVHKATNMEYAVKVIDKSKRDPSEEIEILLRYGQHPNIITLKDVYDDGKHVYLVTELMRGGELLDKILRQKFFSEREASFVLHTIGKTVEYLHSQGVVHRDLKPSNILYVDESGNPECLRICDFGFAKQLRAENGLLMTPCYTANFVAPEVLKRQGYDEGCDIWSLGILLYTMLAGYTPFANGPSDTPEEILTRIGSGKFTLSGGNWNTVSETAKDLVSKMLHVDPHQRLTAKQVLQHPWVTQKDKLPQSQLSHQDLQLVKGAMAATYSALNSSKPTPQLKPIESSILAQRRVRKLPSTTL
T5 sequence (P41240 whole entry): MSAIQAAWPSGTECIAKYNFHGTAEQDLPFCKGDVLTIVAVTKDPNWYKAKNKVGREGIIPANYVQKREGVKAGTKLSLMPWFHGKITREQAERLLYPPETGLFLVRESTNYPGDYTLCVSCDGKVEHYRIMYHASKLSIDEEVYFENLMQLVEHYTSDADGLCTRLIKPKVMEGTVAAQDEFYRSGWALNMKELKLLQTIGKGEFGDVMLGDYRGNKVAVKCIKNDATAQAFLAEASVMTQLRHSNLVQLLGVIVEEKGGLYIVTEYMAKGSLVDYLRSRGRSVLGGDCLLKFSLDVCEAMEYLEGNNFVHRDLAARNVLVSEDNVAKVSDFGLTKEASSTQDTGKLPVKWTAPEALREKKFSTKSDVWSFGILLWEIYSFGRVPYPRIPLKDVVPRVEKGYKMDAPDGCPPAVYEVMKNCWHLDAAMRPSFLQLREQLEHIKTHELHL
T15 sequence (P00519 whole entry, species assumed): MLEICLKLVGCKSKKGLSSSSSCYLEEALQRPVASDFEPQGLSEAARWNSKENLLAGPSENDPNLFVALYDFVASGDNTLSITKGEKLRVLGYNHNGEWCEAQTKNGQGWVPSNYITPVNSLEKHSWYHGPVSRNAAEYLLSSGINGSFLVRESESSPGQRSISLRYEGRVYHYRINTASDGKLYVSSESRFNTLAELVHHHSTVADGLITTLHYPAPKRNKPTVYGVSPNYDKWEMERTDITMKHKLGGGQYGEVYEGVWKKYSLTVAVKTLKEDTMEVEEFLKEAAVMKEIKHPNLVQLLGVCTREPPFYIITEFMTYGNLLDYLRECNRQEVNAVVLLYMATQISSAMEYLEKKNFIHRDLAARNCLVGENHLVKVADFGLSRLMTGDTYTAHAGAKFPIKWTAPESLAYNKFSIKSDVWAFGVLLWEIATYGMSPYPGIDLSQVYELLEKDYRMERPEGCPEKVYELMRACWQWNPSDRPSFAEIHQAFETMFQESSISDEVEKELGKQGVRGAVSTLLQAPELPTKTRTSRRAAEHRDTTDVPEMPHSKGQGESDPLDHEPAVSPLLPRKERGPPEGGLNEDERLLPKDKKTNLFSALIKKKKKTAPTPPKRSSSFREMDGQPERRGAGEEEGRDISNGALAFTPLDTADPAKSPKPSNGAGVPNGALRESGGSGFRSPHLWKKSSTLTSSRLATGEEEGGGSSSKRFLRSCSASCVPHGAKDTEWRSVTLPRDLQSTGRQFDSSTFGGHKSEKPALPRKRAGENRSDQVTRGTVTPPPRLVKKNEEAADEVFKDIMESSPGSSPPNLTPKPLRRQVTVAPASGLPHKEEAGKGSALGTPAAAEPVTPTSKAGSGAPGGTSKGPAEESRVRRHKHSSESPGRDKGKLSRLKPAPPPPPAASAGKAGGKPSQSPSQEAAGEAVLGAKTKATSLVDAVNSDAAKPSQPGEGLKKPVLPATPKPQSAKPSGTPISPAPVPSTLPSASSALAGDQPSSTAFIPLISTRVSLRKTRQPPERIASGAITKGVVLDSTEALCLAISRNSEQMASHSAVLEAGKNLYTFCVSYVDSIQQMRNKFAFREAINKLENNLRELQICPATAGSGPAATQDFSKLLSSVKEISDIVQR
T4 sequence (Q06187 whole entry): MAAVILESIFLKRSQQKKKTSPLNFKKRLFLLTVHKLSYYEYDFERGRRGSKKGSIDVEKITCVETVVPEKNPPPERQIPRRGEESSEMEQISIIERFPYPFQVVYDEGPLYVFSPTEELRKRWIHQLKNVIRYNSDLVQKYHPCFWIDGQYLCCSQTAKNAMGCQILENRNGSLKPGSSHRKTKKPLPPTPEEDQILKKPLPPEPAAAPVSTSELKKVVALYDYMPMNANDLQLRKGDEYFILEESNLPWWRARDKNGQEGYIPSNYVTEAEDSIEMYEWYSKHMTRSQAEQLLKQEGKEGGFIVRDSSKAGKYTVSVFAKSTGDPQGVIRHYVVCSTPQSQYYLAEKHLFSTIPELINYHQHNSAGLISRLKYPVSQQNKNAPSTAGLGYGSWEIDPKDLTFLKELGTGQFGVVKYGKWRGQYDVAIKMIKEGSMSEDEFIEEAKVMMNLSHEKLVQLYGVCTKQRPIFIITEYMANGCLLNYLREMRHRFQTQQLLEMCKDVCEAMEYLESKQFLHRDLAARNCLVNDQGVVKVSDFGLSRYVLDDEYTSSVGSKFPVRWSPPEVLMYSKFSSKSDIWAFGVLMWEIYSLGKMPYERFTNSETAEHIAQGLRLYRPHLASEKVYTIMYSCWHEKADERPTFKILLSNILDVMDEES
T12 sequence (Q02763 23-1124): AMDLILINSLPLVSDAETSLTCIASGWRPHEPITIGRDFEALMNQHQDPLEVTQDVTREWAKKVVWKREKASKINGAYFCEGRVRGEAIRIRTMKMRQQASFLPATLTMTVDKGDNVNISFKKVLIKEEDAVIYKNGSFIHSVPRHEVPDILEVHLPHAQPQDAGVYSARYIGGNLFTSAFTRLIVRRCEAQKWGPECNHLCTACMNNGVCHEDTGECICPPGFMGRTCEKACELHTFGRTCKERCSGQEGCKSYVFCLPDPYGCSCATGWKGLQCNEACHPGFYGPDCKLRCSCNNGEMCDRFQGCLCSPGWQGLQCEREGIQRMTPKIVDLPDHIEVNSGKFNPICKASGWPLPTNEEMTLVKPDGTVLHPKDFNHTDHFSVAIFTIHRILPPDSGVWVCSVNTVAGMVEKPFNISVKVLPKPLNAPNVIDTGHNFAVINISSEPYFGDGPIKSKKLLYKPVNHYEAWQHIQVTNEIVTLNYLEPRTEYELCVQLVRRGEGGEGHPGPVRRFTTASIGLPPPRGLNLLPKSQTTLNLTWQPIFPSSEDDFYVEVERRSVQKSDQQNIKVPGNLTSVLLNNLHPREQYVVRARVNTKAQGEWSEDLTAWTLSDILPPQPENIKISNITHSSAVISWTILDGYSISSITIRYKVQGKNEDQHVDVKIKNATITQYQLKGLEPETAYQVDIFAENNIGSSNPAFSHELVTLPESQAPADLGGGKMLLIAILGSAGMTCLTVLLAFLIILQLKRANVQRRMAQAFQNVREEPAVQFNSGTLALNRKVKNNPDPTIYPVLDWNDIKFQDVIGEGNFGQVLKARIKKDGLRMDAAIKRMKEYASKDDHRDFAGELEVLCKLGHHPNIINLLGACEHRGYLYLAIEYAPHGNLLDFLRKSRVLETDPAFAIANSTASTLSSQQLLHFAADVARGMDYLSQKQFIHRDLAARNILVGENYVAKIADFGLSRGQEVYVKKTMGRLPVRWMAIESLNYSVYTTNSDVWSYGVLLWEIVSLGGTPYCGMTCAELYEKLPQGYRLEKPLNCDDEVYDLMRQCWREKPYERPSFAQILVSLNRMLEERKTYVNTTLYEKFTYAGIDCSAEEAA
T14 sequence (Q16539 whole entry): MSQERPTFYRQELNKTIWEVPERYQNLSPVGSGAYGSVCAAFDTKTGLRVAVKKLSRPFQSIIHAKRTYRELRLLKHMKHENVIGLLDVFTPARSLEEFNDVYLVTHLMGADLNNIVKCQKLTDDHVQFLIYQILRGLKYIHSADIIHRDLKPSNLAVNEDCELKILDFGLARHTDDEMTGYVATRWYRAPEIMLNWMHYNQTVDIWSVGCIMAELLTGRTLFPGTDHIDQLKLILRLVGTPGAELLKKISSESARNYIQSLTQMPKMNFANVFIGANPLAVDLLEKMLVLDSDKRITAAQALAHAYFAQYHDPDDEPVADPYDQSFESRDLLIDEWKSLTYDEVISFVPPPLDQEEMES
T11 sequence (P52564 whole entry): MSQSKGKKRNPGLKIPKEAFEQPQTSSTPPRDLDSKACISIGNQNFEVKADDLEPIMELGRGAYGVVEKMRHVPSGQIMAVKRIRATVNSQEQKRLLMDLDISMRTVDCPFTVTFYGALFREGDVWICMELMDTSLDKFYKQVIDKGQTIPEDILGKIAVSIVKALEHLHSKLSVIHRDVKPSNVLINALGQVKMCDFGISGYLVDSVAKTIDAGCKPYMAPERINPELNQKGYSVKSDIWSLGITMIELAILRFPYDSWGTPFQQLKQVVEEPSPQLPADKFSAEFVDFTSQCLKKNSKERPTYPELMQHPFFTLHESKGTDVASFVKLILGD

The inhibition is how much of the control response was suppressed. With `Cc1cn(-c2cc(C(=O)Nc3ccc(C)c(Nc4nccn4-c4ncnc5[nH]ccc45)c3)cc(C(F)(F)F)c2)cn1` [Example 2, 3-(4-methyl-imidazol-1-yl)-N-{4-methyl-3-[1-(7H-pyrrolo[2,3-d]pyrimidin-4-yl)-1H-imidazol-2-ylamino]-phenyl}-5-trifluoromethyl-benzamide], the inhibition at 10 µM is 100% on TrkB; 83% at PDGFRβ; 89% on FGFR3; 99% on BTK; 97% on CSK; 99% at BMX. Further, the inhibition at 10 µM is 99% at Lck; 86% on p70S6K; 98% on c-RAF; 71% on Fes; 99% on MKK6; 99% on Tie2. The inhibition at 10 µM on Rsk1 was found to be 88%; on SAPK2α, 97%; at Abl, 99%; on c-SRC, 100%. Further, in the assay on Bcr-Abl, the “percentage inhibition of Bcr-Abl” value is reported as 99%.

Values taken from patent publication US20080188483A1, “Compounds and Compositions as Protein Kinase Inhibitors” (IRM LLC, priority 2006, published 2008).
